This passage reports EC50 results from patent US10906899B2, “Bicyclic fused pyrazole derivatives for the treatment of RSV” (GEORGIA STATE UNIVERSITY RESEARCH FOUNDATION, INC., priority 2016, dated 2021).

Molecules are shown by their SMILES.

In the first assay the test system is RSV. Description: Dose-response counterscreen: luciferase reporter virus infection of BEAS-2B cells (EC50). The format is cell-based, respiratory syncytial virus (RSV). Particulars: human respiratory syncytial virus, A series compounds, anti-RSV potency, read-out: Potency Range (EC50 values). In general terms: Counterscreens check selectivity or assay interference.
Regarding `COc1cc(C2CC(=O)Nc3[nH]ncc32)ccc1OC1CCCC1` (stereo not drawn) [AVG-179], the 50% effective concentration (EC50) was more than 20000 nM.
As for `COc1cc(C2CC(=O)Nc3c2cnn3-c2ccccn2)ccc1OC1CCCC1` (stereo not drawn) [AVG-180], the EC50 lay in the range of 10000 to 20000 nM.
In the case of `COc1cc(C2CC(=O)Nc3nn(-c4ccccn4)cc32)ccc1OC1CCCC1` (stereo not drawn) [AVG-180b], the EC50 is 10000 to 20000 nM.
Still for that read-out and setting: under `COc1ccc(Cn2ncc3c2NC(=O)CC3c2ccc(OC3CCCC3)c(OC)c2)c(OC)c1` (stereo not drawn) [AVG-181] stands 1000 to 10000 nM.

Staying with this assay, now noted: human respiratory syncytial virus, B series compounds, read-out: Potency Range (EC50 values).
Consider `Cc1c2c(=O)n(-c3nc4ccccc4s3)n(Cc3ccccc3)c2cc(=O)n1Cc1cc(Cl)cc(Cl)n1` [AVG-169], for which the EC50 lay in the range of 100 to 1000 nM.
On the same count and under the same terms, under `Cc1c2c(=O)n(-c3nc4ccccc4s3)n(Cc3ccccc3)c2cc(=O)n1C(C)c1cccc(Cl)n1` (stereo not drawn) [AVG-170] stands 1000 to 10000 nM.
Regarding `Cc1c2c(=O)n(-c3ccccn3)n(Cc3ccccc3)c2cc(=O)n1Cc1cccc(Cl)n1` [AVG-171], the EC50 was 10 to 100 nM.
`Cc1c2c(=O)n(-c3ccccn3)n(Cc3ccccc3)c2cc(=O)n1Cc1ccc(Cl)c(Cl)n1` [AVG-172]: the concentration for a half-maximal effect (EC50) was 100 to 1000 nM.
On the same count and under the same terms, under `Cc1c2c(=O)n(-c3nc4ccccc4s3)n(Cc3ccc(Cl)cc3)c2cc(=O)n1Cc1cccc(Cl)n1` [AVG-173] stands 100 to 1000 nM.
The same measure, in the same setting: under `Cc1c2c(=O)n(-c3nc4ccccc4s3)n(Cc3cccc(Cl)c3)c2cc(=O)n1Cc1cccc(Cl)n1` [AVG-174] stands 1000 to 10000 nM.
Turning to `Cc1c2c(=O)n(-c3nc4ccccc4s3)n(Cc3ccccc3Cl)c2cc(=O)n1Cc1cccc(Cl)n1` [AVG-175], the EC50 was 1000 to 10000 nM.
On the same count and under the same terms, under `COc1ccccc1Cn1c2cc(=O)n(Cc3cccc(Cl)n3)c(C)c2c(=O)n1-c1nc2ccccc2s1` [AVG-176] stands 100 to 1000 nM; under `COc1cccc(Cn2c3cc(=O)n(Cc4cccc(Cl)n4)c(C)c3c(=O)n2-c2nc3ccccc3s2)c1` [AVG-177], 100 to 1000 nM; under `COc1ccc(Cn2c3cc(=O)n(Cc4cccc(Cl)n4)c(C)c3c(=O)n2-c2nc3ccccc3s2)cc1` [AVG-178], 10 to 100 nM.
Same read-out and setting: under `Cc1c2c(=O)n(-c3nc4c(Cl)cccc4s3)n(Cc3ccccc3)c2cc(=O)n1Cc1cccc(Cl)n1` [AVG-183] stands 10 to 100 nM; under `Cc1c2c(=O)n(-c3nc4cc(Cl)ccc4s3)n(Cc3ccccc3)c2cc(=O)n1Cc1cccc(Cl)n1` [AVG-184], 1000 to 10000 nM; under `Cc1c2c(=O)n(-c3nc4ccc(Cl)cc4s3)n(Cc3ccccc3)c2cc(=O)n1Cc1cccc(Cl)n1` [AVG-185], 100 to 1000 nM.
Same read-out and setting: under `COc1cccc2sc(-n3c(=O)c4c(C)n(Cc5cccc(Cl)n5)c(=O)cc4n3Cc3ccccc3)nc12` [AVG-187] stands 100 to 1000 nM; under `COc1ccc2sc(-n3c(=O)c4c(C)n(Cc5cccc(Cl)n5)c(=O)cc4n3Cc3ccccc3)nc2c1` [AVG-188], 100 to 1000 nM.
As to `COc1ccc2nc(-n3c(=O)c4c(C)n(Cc5cccc(Cl)n5)c(=O)cc4n3Cc3ccccc3)sc2c1` [AVG-189], the EC50 was 10 to 100 nM.
Same read-out and setting: under `Cc1cccc2sc(-n3c(=O)c4c(C)n(Cc5cccc(Cl)n5)c(=O)cc4n3Cc3ccccc3)nc12` [AVG-191] stands 100 to 1000 nM; under `Cc1ccc2sc(-n3c(=O)c4c(C)n(Cc5cccc(Cl)n5)c(=O)cc4n3Cc3ccccc3)nc2c1` [AVG-192], 100 to 1000 nM; under `Cc1ccc2nc(-n3c(=O)c4c(C)n(Cc5cccc(Cl)n5)c(=O)cc4n3Cc3ccccc3)sc2c1` [AVG-193], 100 to 1000 nM.
On to `Cc1cccc2nc(-n3c(=O)c4c(C)n(Cc5cccc(Cl)n5)c(=O)cc4n3Cc3ccccc3)sc12` [AVG-194], for which the EC50 lay within 100 to 1000 nM.
As for `Cc1c2c(=O)n(-c3nc4ncccc4s3)n(Cc3ccccc3)c2cc(=O)n1Cc1cccc(Cl)n1` [AVG-195], the concentration giving a half-maximal response (EC50) lay in the range of 10 to 100 nM.
Regarding `Cc1c2c(=O)n(-c3nc4cnccc4s3)n(Cc3ccccc3)c2cc(=O)n1Cc1cccc(Cl)n1` [AVG-196], the half-maximal effective concentration (EC50) was in the range of 10000 to 20000 nM.
On the same count and under the same terms, under `Cc1c2c(=O)n(-c3nc4ccncc4s3)n(Cc3ccccc3)c2cc(=O)n1Cc1cccc(Cl)n1` [AVG-197] stands 10 to 100 nM; under `Cc1c2c(=O)n(-c3nc4cccnc4s3)n(Cc3ccccc3)c2cc(=O)n1Cc1cccc(Cl)n1` [AVG-198], 100 to 1000 nM; under `COc1ccc(Cn2c(=O)c3c(C)n(Cc4ccccn4)c(=O)cc3n2Cc2ccccc2)cc1` [AVG-199], 10000 to 20000 nM.
On the same count and under the same terms, under `Cc1c2c(=O)[nH]n(Cc3ccccc3)c2cc(=O)n1Cc1ccccn1` [AVG-200] stands more than 20000 nM.
On the same count and under the same terms, under `Cc1c2c(=O)n(-c3nc4ccccc4s3)n(Cc3ccccc3)c2cc(=O)n1Cc1cccc(C(F)(F)F)n1` [AVG-201] stands 100 to 1000 nM; under `COc1cccc(Cn2c(C)c3c(=O)n(-c4ccccn4)n(Cc4ccccc4)c3cc2=O)n1` [AVG-203], 10 to 100 nM.
As to `CCOc1cccc(Cn2c(C)c3c(=O)n(-c4nc5ccccc5s4)n(Cc4ccccc4)c3cc2=O)n1` [AVG-204], the EC50 was in the range of 100 to 1000 nM.
Same read-out and setting: under `Cc1c2c(=O)n(-c3nc4ccccc4s3)n(Cc3ccccc3)c2cc(=O)n1Cc1cccc(OC(C)C)n1` [AVG-205] stands 100 to 1000 nM; under `Cc1c2c(=O)n(-c3nc4ccccc4s3)n(Cc3ccccc3)c2cc(=O)n1Cc1cccc(OCCN(C)C)n1` [AVG-206], 1000 to 10000 nM.
On the same count and under the same terms, under `Cc1c2c(=O)n(-c3nc4ccccc4s3)n(Cc3ccccc3)c2cc(=O)n1Cc1cccc(OCCCN(C)C)n1` [AVG-207] stands 1000 to 10000 nM; under `Cc1c2c(=O)n(-c3nc4ccccc4s3)n(Cc3ccccc3)c2cc(=O)n1Cc1cccc(OC2CCN(C)CC2)n1` [AVG-208], 1000 to 10000 nM; under `Cc1c2c(=O)n(-c3nc4ccccc4s3)n(Cc3ccccc3)c2cc(=O)n1CC1CCCC(=O)N1` (stereo not drawn) [AVG-210], 10000 to 20000 nM.
Same read-out and setting: under `Cc1c2c(=O)n(-c3nc4ccccc4s3)n(Cc3ccccc3)c2cc(=O)n1CC1CCC(=O)N1C` (stereo not drawn) [AVG-212] stands 10000 to 20000 nM.
Regarding `Cc1c2c(=O)n(-c3nc4ccccc4s3)n(Cc3ccccc3)c2cc(=O)n1CC1CCC(=O)N1` (stereo not drawn) [AVG-213], the 50% effective concentration (EC50) was 1000 to 10000 nM.
On the same count and under the same terms, under `Cc1c2c(=O)n(-c3nc4ccccc4s3)n(Cc3ccccc3)c2cc(=O)n1Cc1cccc(F)n1` [AVG-214] stands 100 to 1000 nM.
The same measure, in the same setting: under `Cc1c2c(=O)n(-c3nc4ccccc4s3)n(Cc3ccccc3)c2cc(=O)n1Cc1cccc(N2CCN(C)CC2)n1` [AVG-225] stands 100 to 1000 nM.
On the same count and under the same terms, under `Cc1c2c(=O)n(-c3nc4ccccc4s3)n(Cc3ccccc3)c2cc(=O)n1Cc1cccc(C2CCOCC2)n1` [AVG-227] stands 100 to 1000 nM; under `Cc1c2c(=O)n(-c3nc4ccccc4s3)n(Cc3ccccc3)c2cc(=O)n1Cc1cccc(N2CCOCC2)n1` [AVG-228], 100 to 1000 nM.
As to `Cc1c2c(=O)n(-c3ccccn3)n(Cc3ccccc3)c2cc(=O)n1Cc1cccc(-c2ccccc2)n1` [AVG-229], the 50% effective concentration (EC50) was in the range of 100 to 1000 nM.
On the same count and under the same terms, under `Cc1c2c(=O)n(-c3ccccn3)n(Cc3ccccc3)c2cc(=O)n1Cc1cccc(OC(C)C)n1` [AVG-230] stands 100 to 1000 nM; under `COc1ccc(Cn2c3cc(=O)n(Cc4cccc(OC)n4)c(C)c3c(=O)n2-c2nc3ccccc3s2)cc1` [AVG-231], 10 to 100 nM.
Still for that read-out and setting: under `COc1ccc(Cn2c3cc(=O)n(Cc4cccc(OC)n4)c(C)c3c(=O)n2-c2ccccn2)cc1` [AVG-232] stands 10 to 100 nM; under `COc1ccc(Cn2c3cc(=O)n(Cc4cccc(Cl)n4)c(C)c3c(=O)n2-c2ccccn2)cc1` [AVG-233], 10 to 100 nM.
Same read-out and setting: under `Cc1c2c(=O)n(-c3ccccn3)n(Cc3ccc(OC(C)C)cc3)c2cc(=O)n1Cc1cccc(Cl)n1` [AVG-234] stands 100 to 1000 nM; under `Cc1c2c(=O)n(-c3ccccn3)n(Cc3ccccc3)c2cc(=O)n1Cc1nccs1` [AVG-239], 1000 to 10000 nM.
With `COc1cccc(Cn2c(C)c3c(=O)n(-c4cc(Cl)ccn4)n(Cc4ccccc4)c3cc2=O)n1` [AVG-245], the EC50 lay within 100 to 1000 nM.
Still for that read-out and setting: under `Cc1c2c(=O)n(-c3ccccn3)n(Cc3ccccc3)c2cc(=O)n1Cc1nc(Cl)cs1` [AVG-252] stands 100 to 1000 nM; under `COc1cccc(Cn2c(C)c3c(=O)n(-c4ccccn4)n(Cc4ccc(OC(C)C)cc4)c3cc2=O)n1` [AVG-253], 100 to 1000 nM.
On the same count and under the same terms, under `COc1ccc(Cn2c3cc(=O)n(Cc4cccc(OC(C)C)n4)c(C)c3c(=O)n2-c2ccccn2)cc1` [AVG-254] stands 100 to 1000 nM.
As to `Cc1c2c(=O)n(-c3nc4ccc(OC(C)C)cc4s3)n(Cc3ccccc3)c2cc(=O)n1Cc1cccc(Cl)n1` [AVG-256], the EC50 was in the range of 10 to 100 nM.
Still for that read-out and setting: under `COc1cc(C2CC(=O)Nc3c2c(OS(=O)(=O)C(F)(F)F)nn3-c2nc3ccccc3s2)ccc1OC1CCCC1` (stereo not drawn) [AVG-257, 1-(benzo[d]thiazol-2-yl)-4-(4-(cyclopentyloxy)-3-methoxyphenyl)-6-oxo-4,5,6,7-tetrahydro-1H-pyrazolo[3,4-b]pyridin-3-yl trifluoromethanesulfonate] stands 10000 to 20000 nM.

As usually defined, the EC50 is the midpoint of the concentration-response curve.
